Data from PubChem BioAssay AID1918994 (Molecular Pharmacology Branch, DTP, NCI, 2023).

Test system: 292921-168-R-J2-PDC complex spheroid growth
Experiment: Anticancer human tumor 292921-168-R-J2-PDC patient-derived pancreatic carcinoma cell line growth inhibition [AhR]
Settings: for IC50: curve of first compound; for viability, T/C: stronger effect = lower value; active = viability on the fitted dose curve at most 10% of control; inactive = the rest
Excerpt: Multicellular complex tumor spheroid response to aryl hydrocarbon receptor antagonists in combination with a variety of drugs and investigational agents in selected tumor cell lines
The current study was undertaken to assess response to aryl hydrocarbon receptor antagonists in combination with standard-of-care drugs and investigational agents in solid tumor complex spheroid models. Complex spheroids include a stromal component modeled by human endothelial cells (HUVEC) and fibroblasts modeled by human mesenchymal stem cells (MSCs). The concentration ranges selected for each drug and investigational agent were based upon clinically achievable concentrations if the clinical Cmax of the agent was known.
Compounds. The drugs and investigational agents: BAY 2416964 (NSC825713), GNF351 (NSC835774), CH-223191 (NSC835775), CPI-455 (NSC825282), aza-TdCyd (NSC777586), decitabine (NSC127716), belinostat (NSC758774), entinostat (NSC756642), pevonedistat (NSC761192), tazemetostat (NSC777109), talazoparib (NSC765396), olaparib (NSC753686), selinexor (NSC780203), nedisertib (M3814, NSC802822), bortezomib (NSC756655), venetoclax (NSC766270), doxorubicin (NSC123127), elimusertib (BAY189344, NSC800525), ceralasertib (AZD6738, NSC777638), TAK-243 (NSC785004), alisertib (NSC759677), etoposide (NSC141540), topotecan (NSC609699), eribulin (NSC707389), gemcitabine (NSC613327), carboplatin (NSC241240), cisplatin (NSC119875), and SN-38 (NSC673596) were obtained from the National Cancer Institute (NCI) Developmental Therapeutics Program Chemical Repository (32). The FDA-approved anticancer drug set is available from the Developmental Therapeutics Program at https://dtp.cancer.gov/organization/dscb/obtaining/available plates.htm. […] The stock solutions were prepared in dimethyl sulfoxide (DMSO, Sigma-Aldrich, St. Louis, MO, cat. D2650), except for the platinum compounds which were prepared in saline (Quality Biological, Gaithersburg, MD, cat. 114-055-101), at 800-fold the tested concentration and stored at -70 degrees C prior to their use. All drugs and investigational agents were tested over a range starting from a high concentration at or near the clinical Cmax and decreasing in half-log increments. If the clinical Cmax for an agent had not been determined, the highest concentration tested was 10 microM (Table 1).
Cell Culture. All cells were maintained in an incubator at 37 degrees C and 5% CO2 with 95% humidity. The PDC lines were cultured according to standard operating procedures established by the NCI PDMR (https://pdmr.cancer.gov). Briefly, all PDCs were thawed and cultured in Matrigel-coated flasks prepared with a working solution of 1X Ham's F-12 nutrient mix, without supplementation (Invitrogen, Waltham, MA, cat. 11765054), 100 U/mL penicillin-streptomycin (Invitrogen, cat. 15140122), and 2.5% Matrigel (Corning Inc., Corning, NY, cat. 354248) for the first three passages. All PDCs were cultured in complete DMEM/F-12 media containing advanced DMEM/F-12 (Invitrogen, cat. 12634028), 4.9% defined fetal bovine serum, heat inactivated (HyClone Laboratories Inc., Logan, UT, cat. SH30070.03HI), 389 ng/mL hydrocortisone (Sigma-Aldrich, cat. H4001), 9.7 ng/mL human EGF recombinant protein (Invitrogen, cat. PHG0313), 23.4 microg/mL adenine (Sigma-Aldrich, cat. A2786), 97.3 U/mL penicillin-streptomycin (Invitrogen, cat. 15140122), 1.9 mM L-glutamine (Invitrogen, cat. 25030081), and 9.7 microM Y-27632 dihydrochloride (Tocris Bioscience, Bristol, United Kingdom, cat. 1254). The PDCs were cultured in complete DMEM/F12 media without 10 microM Y-27632 dihydrochloride for at least two passages prior to the screen. The established cell lines NCI-H1341 and […] were cultured in DMEM/F-12, HEPES (Invitrogen, cat. 11330032), 5% defined fetal bovine serum (HyClone Laboratories Inc., cat. SH30070.03), ITS premix universal culture supplement [insulin (5 microg/mL), transferrin (5 microg/mL), and selenious acid (5 ng/mL)] […]

[1] = second compound 0.1 µM, first compound 0.0316 µM
[2] = second compound 0.1 µM, first compound 0.1 µM
[3] = second compound 0.316 µM, first compound 0.0316 µM
[4] = second compound 0.316 µM, first compound 0.1 µM
[5] = second compound 1 µM, first compound 0.0316 µM
[6] = second compound 1 µM, first compound 0.1 µM
[7] = second compound 3.16 µM, first compound 0.0316 µM
[8] = second compound 3.16 µM, first compound 0.1 µM
[9] = second compound 10 µM, first compound 0.0316 µM
[10] = second compound 10 µM, first compound 0.1 µM
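Note: spheroids exposed to compounds for seven days after three days of growth.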

Nc1ccn(C2OC(CO)C(O)C2(F)F)c(=O)n1 (stereo not given) + Cc1cncc(-c2nc(NCCc3c[nH]c4ccccc34)c3ncn(C(C)C)c3n2)c1
active: viability, T/C [1] 8.94% | viability, T/C [2] 10.1% | viability, T/C (second compound 0.1 µM, first compound 0.316 µM) 9.38% | viability, T/C (second compound 0.1 µM, first compound 1 µM) 9.84% | viability, T/C (second compound 0.1 µM, first compound 3.16 µM) 9.57% | viability, T/C (second compound 0.1 µM, first compound 10 µM) 7.01% | viability, T/C [4] 9.23% | viability, T/C (second compound 0.316 µM, first compound 0.316 µM) 9.06% | viability, T/C (second compound 0.316 µM, first compound 1 µM) 8.59% | viability, T/C (second compound 0.316 µM, first compound 3.16 µM) 9.76% | viability, T/C (second compound 0.316 µM, first compound 10 µM) 6.34% | viability, T/C [6] 9.47% | viability, T/C (second compound 1 µM, first compound 0.316 µM) 9.26% | viability, T/C (second compound 1 µM, first compound 1 µM) 9.49% | viability, T/C (second compound 1 µM, first compound 3.16 µM) 8.78% | viability, T/C (second compound 1 µM, first compound 10 µM) 7.47%
< 31.6 nM: IC50 (second compound 0.1 µM) | IC50 (second compound 0.316 µM) | IC50 (second compound 1 µM) | IC50 (second compound 3.16 µM) | IC50 (second compound 10 µM)
inactive: viability, T/C [3] 10.2% | viability, T/C [5] 12% | viability, T/C [7] 13.8% | viability, T/C [8] 12.3% | viability, T/C (second compound 3.16 µM, first compound 0.316 µM) 10.2% | viability, T/C (second compound 3.16 µM, first compound 1 µM) 11.6% | viability, T/C (second compound 3.16 µM, first compound 3.16 µM) 11.6% | viability, T/C (second compound 3.16 µM, first compound 10 µM) 8.76% | viability, T/C [9] 29.8% | viability, T/C [10] 21.1% | viability, T/C (second compound 10 µM, first compound 0.316 µM) 19.3% | viability, T/C (second compound 10 µM, first compound 1 µM) 15.2% | viability, T/C (second compound 10 µM, first compound 3.16 µM) 15.8% | viability, T/C (second compound 10 µM, first compound 10 µM) 13.4%

CC[C@@]1(O)C(=O)OCc2c1cc1n(c2=O)Cc2cc3c(CN(C)C)c(O)ccc3nc2-1 + CC(CO)NC(=O)c1cc(-c2ccc(Cl)cc2)nn(-c2cnn(C)c2)c1=O
28.1 nM: IC50 (second compound 0.316 µM)
30.7 nM: IC50 (second compound 1 µM)
29.2 nM: IC50 (second compound 0.1 µM)
18.4 nM: IC50 (second compound 10 µM)
inactive: viability, T/C (second compound 0.1 µM, first compound 0.000316 µM) 101% | viability, T/C (second compound 0.1 µM, first compound 0.001 µM) 99.9% | viability, T/C (second compound 0.1 µM, first compound 0.00316 µM) 100% | viability, T/C (second compound 0.1 µM, first compound 0.01 µM) 78.6% | viability, T/C [1] 48.6% | viability, T/C [2] 21.8% | viability, T/C (second compound 0.316 µM, first compound 0.000316 µM) 104% | viability, T/C (second compound 0.316 µM, first compound 0.001 µM) 103% | viability, T/C (second compound 0.316 µM, first compound 0.00316 µM) 106% | viability, T/C (second compound 0.316 µM, first compound 0.01 µM) 75.2% | viability, T/C [3] 49.3% | viability, T/C [4] 24% | viability, T/C (second compound 1 µM, first compound 0.000316 µM) 101% | viability, T/C (second compound 1 µM, first compound 0.001 µM) 98.2% | viability, T/C (second compound 1 µM, first compound 0.00316 µM) 99.5% | viability, T/C (second compound 1 µM, first compound 0.01 µM) 77.4% | viability, T/C [5] 50.4% | viability, T/C [6] 23.3% | viability, T/C (second compound 3.16 µM, first compound 0.000316 µM) 91.4% | viability, T/C (second compound 3.16 µM, first compound 0.001 µM) 81.6% | viability, T/C (second compound 3.16 µM, first compound 0.00316 µM) 90.6% | viability, T/C (second compound 3.16 µM, first compound 0.01 µM) 72.5% | viability, T/C [7] 45.1% | viability, T/C [8] 23.6% | viability, T/C (second compound 10 µM, first compound 0.000316 µM) 68% | viability, T/C (second compound 10 µM, first compound 0.001 µM) 67.7% | viability, T/C (second compound 10 µM, first compound 0.00316 µM) 63.1% | viability, T/C (second compound 10 µM, first compound 0.01 µM) 62% | viability, T/C [9] 40% | viability, T/C [10] 22%
25.5 nM: IC50 (second compound 3.16 µM)

CCc1c2c(nc3ccc(O)cc13)-c1cc3c(c(=O)n1C2)COC(=O)[C@]3(O)CC + CC(CO)NC(=O)c1cc(-c2ccc(Cl)cc2)nn(-c2cnn(C)c2)c1=O
1.02 nM: IC50 (second compound 1 µM)
active: viability, T/C (second compound 0.1 µM, first compound 0.03 µM) 12.4% | viability, T/C (second compound 0.1 µM, first compound 0.0949 µM) 5.44% | viability, T/C (second compound 0.1 µM, first compound 0.3 µM) 3.22% | viability, T/C (second compound 0.316 µM, first compound 0.0949 µM) 6.1% | viability, T/C (second compound 0.316 µM, first compound 0.3 µM) 3.45% | viability, T/C (second compound 1 µM, first compound 0.0949 µM) 7.22% | viability, T/C (second compound 1 µM, first compound 0.3 µM) 3.97% | viability, T/C (second compound 3.16 µM, first compound 0.0949 µM) 6.34% | viability, T/C (second compound 3.16 µM, first compound 0.3 µM) 3.5% | viability, T/C (second compound 10 µM, first compound 0.0949 µM) 6.27% | viability, T/C (second compound 10 µM, first compound 0.3 µM) 4.4%
< 0.949 nM: IC50 (second compound 0.316 µM) | IC50 (second compound 3.16 µM) | IC50 (second compound 10 µM)
1.79 nM: IC50 (second compound 0.1 µM)
inactive: viability, T/C (second compound 0.1 µM, first compound 0.000949 µM) 55.6% | viability, T/C (second compound 0.1 µM, first compound 0.003 µM) 46.4% | viability, T/C (second compound 0.1 µM, first compound 0.00949 µM) 20.9% | viability, T/C (second compound 0.316 µM, first compound 0.000949 µM) 49.2% | viability, T/C (second compound 0.316 µM, first compound 0.003 µM) 42% | viability, T/C (second compound 0.316 µM, first compound 0.00949 µM) 22.7% | viability, T/C (second compound 0.316 µM, first compound 0.03 µM) 12% | viability, T/C (second compound 1 µM, first compound 0.000949 µM) 49.8% | viability, T/C (second compound 1 µM, first compound 0.003 µM) 43.3% | viability, T/C (second compound 1 µM, first compound 0.00949 µM) 21.9% | viability, T/C (second compound 1 µM, first compound 0.03 µM) 12.9% | viability, T/C (second compound 3.16 µM, first compound 0.000949 µM) 44.4% | viability, T/C (second compound 3.16 µM, first compound 0.003 µM) 32.9% | viability, T/C (second compound 3.16 µM, first compound 0.00949 µM) 21.2% | viability, T/C (second compound 3.16 µM, first compound 0.03 µM) 11.3% | viability, T/C (second compound 10 µM, first compound 0.000949 µM) 38.2% | viability, T/C (second compound 10 µM, first compound 0.003 µM) 31.2% | viability, T/C (second compound 10 µM, first compound 0.00949 µM) 20.5% | viability, T/C (second compound 10 µM, first compound 0.03 µM) 12%
